Test results as given in ChEMBL document CHEMBL2074540, “Induction of multidrug resistance protein 3 (mrp3) in vivo is independent of constitutive androstane receptor” (Drug Metab Dispos, 2003).

What was measured:
[1] = biological target: ATP-binding cassette sub-family C member 3 (Mus musculus, UniProt B2RX12); assay: TP_TRANSPORTER: Branched DNA Assay in vivo, liver of mouse; format: functional, organism-based
[2] = biological target: ATP-binding cassette sub-family C member 3 (Rattus norvegicus, UniProt O88563); assay: TP_TRANSPORTER: Branched DNA Assay in vivo, liver of WKY rat; format: functional, organism-based
Sequence of ATP-binding cassette sub-family C member 3 (Rattus norvegicus, UniProt O88563) (O88563 whole entry): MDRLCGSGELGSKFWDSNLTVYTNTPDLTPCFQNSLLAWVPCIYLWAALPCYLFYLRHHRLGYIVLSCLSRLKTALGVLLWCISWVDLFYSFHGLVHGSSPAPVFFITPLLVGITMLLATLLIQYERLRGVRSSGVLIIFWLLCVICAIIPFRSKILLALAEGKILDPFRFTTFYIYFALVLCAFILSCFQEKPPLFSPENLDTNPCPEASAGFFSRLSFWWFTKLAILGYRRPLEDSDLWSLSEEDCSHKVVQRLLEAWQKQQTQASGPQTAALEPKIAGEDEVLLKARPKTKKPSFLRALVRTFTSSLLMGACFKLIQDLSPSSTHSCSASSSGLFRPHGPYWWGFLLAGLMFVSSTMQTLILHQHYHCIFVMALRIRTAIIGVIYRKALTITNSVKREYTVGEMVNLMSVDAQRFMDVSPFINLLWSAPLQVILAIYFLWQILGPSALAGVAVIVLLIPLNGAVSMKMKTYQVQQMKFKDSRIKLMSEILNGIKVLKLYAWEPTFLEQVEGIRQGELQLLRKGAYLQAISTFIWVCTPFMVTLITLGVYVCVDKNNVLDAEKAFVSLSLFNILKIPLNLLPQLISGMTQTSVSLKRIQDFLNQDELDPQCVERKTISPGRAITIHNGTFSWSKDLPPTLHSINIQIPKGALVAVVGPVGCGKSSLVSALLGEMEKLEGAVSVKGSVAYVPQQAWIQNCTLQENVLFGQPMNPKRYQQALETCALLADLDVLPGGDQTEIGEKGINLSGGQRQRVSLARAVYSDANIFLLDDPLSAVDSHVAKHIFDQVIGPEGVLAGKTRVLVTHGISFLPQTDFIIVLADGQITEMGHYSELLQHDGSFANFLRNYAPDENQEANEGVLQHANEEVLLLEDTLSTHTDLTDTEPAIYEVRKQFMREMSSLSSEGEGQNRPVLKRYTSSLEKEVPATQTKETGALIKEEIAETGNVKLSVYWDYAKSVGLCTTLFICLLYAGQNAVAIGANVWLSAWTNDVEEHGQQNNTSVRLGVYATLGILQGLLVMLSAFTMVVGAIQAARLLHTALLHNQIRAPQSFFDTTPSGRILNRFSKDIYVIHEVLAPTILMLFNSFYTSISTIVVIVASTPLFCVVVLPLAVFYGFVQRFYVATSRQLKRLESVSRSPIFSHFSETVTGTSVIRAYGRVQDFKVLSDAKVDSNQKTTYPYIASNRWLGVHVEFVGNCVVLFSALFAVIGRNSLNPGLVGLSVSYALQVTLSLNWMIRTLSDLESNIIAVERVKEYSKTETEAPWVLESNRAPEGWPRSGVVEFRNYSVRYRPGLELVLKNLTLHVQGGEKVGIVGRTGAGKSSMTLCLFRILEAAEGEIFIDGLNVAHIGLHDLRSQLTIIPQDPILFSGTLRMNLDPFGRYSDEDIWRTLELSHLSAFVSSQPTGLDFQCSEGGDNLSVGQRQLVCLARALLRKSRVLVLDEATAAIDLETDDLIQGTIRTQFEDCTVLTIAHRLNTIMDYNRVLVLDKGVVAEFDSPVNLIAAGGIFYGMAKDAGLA

Sequence of ATP-binding cassette sub-family C member 3 (Mus musculus, UniProt B2RX12) (B2RX12 whole entry): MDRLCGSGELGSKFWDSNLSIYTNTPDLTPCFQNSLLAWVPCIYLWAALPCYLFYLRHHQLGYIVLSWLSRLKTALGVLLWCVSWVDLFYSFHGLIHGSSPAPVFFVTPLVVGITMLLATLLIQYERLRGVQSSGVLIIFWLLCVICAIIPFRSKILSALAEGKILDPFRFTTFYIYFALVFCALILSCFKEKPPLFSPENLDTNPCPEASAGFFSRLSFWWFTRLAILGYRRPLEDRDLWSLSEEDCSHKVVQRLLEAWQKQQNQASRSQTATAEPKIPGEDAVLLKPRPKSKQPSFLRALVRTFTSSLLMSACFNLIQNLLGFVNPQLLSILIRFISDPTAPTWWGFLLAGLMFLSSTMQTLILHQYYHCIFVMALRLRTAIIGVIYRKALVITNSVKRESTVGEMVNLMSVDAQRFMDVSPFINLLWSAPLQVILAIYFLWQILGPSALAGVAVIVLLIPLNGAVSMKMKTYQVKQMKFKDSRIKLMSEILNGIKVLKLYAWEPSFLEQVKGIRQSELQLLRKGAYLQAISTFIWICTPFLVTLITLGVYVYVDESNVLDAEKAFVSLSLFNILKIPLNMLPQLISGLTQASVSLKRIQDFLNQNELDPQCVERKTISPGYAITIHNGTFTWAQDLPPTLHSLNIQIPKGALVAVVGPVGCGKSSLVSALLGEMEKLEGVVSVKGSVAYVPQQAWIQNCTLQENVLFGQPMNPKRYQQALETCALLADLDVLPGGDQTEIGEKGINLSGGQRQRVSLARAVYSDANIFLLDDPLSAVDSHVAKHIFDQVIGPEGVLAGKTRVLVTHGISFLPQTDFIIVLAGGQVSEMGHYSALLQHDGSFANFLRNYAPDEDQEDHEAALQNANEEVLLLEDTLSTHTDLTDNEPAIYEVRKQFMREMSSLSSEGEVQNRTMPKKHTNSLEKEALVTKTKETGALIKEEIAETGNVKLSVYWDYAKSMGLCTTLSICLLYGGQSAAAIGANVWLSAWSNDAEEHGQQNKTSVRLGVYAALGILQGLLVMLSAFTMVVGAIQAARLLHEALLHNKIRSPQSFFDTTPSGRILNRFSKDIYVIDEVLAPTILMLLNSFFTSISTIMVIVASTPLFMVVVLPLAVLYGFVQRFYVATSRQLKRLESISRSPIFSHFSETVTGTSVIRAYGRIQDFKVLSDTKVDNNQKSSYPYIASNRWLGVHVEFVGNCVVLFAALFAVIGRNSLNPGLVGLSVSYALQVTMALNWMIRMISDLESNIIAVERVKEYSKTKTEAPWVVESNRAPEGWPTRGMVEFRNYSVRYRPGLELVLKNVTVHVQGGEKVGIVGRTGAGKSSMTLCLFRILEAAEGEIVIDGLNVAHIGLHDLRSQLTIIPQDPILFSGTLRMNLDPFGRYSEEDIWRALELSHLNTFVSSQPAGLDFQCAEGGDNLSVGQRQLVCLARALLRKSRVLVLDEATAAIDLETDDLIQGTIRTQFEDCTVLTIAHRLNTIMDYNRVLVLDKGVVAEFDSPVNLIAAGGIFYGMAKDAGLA

| Structure (SMILES) | Activity [1] | Activity [2] |
| --- | --- | --- |
| c1ccc([C@H]2O[C@@H]2c2ccccc2)cc1 (relative stereo) | inducer [] | inducer [] |
| C=CCSCC=C [DIALLYL SULFIDE] | inducer [] | inducer [] |
| Cc1c(-c2cnccn2)ssc1=S [OLTIPRAZ] | inducer [] | inducer [] |
| CCC1(c2ccccc2)C(=O)NC(=O)NC1=O [PHENOBARBITAL] | inducer [] | inducer [] |
